Results on two molecules are retold here after patent publication US6297250A, “Pyrimidopyrimidine compounds” (Newcastle University Ventures Limited, priority 1997, dated 2001).

The test system of assay [1] is A549. The settings on record: earlier experiments; cited from earlier work.
In assay [2] the test system is MCF7. Particulars: earlier experiments; cited from earlier work.
For a further assay, the system named is L1210 cells. As to the kind of experiment: Nucleoside transport inhibition assay: inhibition of 3H-thymidine uptake, with or without AGP or HSA. It is filed as cell-based, murine. The settings on record: for inhibition at 1 µM: L1210, 1 μM compound; for inhibition at 10 µM: L1210, 10 μM compound. As to the method: In vitro activity. […] For testing the compounds an established nucleoside transport assay involving measurement of thymidine uptake was adapted. Murine leukaemia L1210 cells were used in this assay as their nucleoside transport characteristics are well known. This assay for measuring thymidine uptake used a modification of the rapid mixing technique of Wohleheuter, R. […] Materials used included a transport buffer comprising 130 mM NaCl, 5 mM KC1, 1 mM MgCl, 5 mM NaH2 PO4, 10 mM glucose and 10 mM HEPES. This buffer was made up as sterile 5× concentrate and reconstituted in distilled water and adjusted to pH 7.4 immediately prior to carrying out the assay. […] The supernatant was aspirated and the cells were washed with ice-cold transport buffer and centrifuged again at 1000 rpm for 5 minutes at 4° C. The supernatant was removed and the cells were resuspended in ice-cold transport buffer to give a final cell density of 2-4×10^7 cells/mi. Cells were left on ice for 30 minutes recovery prior to starting the assay. […] The suspension was mixed well and 100 μl was layered onto 150 μl silicone oil (9:11 Dow Corning 556 (Sp.Gr. 0.98):Dow Corning 550 (Sp.Gr. 1.068) (final Sp.Gr. 1.028) overlaying 50 μl 3M KOH in 6 replicate 0.5 ml microfuge tubes. […] The tubes were immediately transferred to a microfuge (Eppendorf) and spun at 12000 rpm for 2 minutes to pellet the cells through the oil and into the KOH. The tubes were capped and the cells left to solubilise in the KOH for 1 hour. Cell number and viability for each run was determined by haemocytometer counting using trypan blue exclusion. […] The tubes were capped and cut in the oil layer such that the bottom portion (cells solubilised in KOH) fell into a 20 ml scintillation vial. 1 ml 0.25M acetic acid followed by 1 ml air was injected into the tube using a 2 ml syringe and 23-gauge needle to disperse and neutralise the KOH-solubilisedcells. 10 ml of Optiphase HiSafe™ scintillant was added and the vials capped and shaken. […] The [^14 C]:[^3 H] ratio was used to calculate the amount of non-transported contaminating [^3 H]thymidine in the extracellular space.

Assay [3] relates to A549. Briefly: Prevention of hypoxanthine rescue from antifolate growth inhibition (sulphorhodamine B). It is filed as cell-based. The settings on record: 3 μM NU3076, 10 μM hypoxanthine. As to the method:
(§1) For example, in investigating the compound NU3076, two lung cancer cell lines: A549 and COR L23 and two breast cancer cell lines MCF7 and MDA MB231 were selected for study. All cell lines were adapted to growth in dialysed serum as previously referred to. […] Cells were exposed to varying concentrations of LY309887 in the presence or absence of 10 μM hypoxanthine, with or without 3 μM NU3076. At the end of the exposure period the cells were fixed and stained with sulphorhodamine B. Hypoxanthine protected all the cell lines from LY309887 growth inhibition.

Assay [4] has as its system MCF7. Described as above. It is filed as cell-based. Particulars: 3 μM NU3076, 10 μM hypoxanthine. As to the method: as §1
The mark [5] stands for this setting: Mus musculus, +5 mg/ml AGP vs no AGP, read-out: % Reduction (of inhibition by AGP).
Setting [6] is: Mus musculus, +5 mg/ml AGP, read-out: % Inhibition of 3H-thymidine uptake, +5 mg/ml AGP.
The mark [7] stands for this setting: Mus musculus, no AGP, read-out: % Inhibition of 3H-thymidine uptake, No AGP.

Like-named read-outs stand apart in the source and are kept apart here.

Regarding `OCCN(CCO)c1nc(N2CCCCC2)c2nc(N(CCO)CCO)nc(N3CCCCC3)c2n1` [NU3003, 2,6-bis(diethanolamino)-4,8-dipiperidinopyrimidopyrimidine, reference compound], the “Block of hypoxanthine rescue from lometerxol growth inhibition” value in the assay with A549 [1] and with MCF7 [2] was “blocked hypoxantine rescue” in each case.
As for `COc1ccc(CNc2nc(N(CCO)CCO)nc3c(NCc4ccc(OC)cc4)nc(N(CCO)CCO)nc23)cc1` [NU3076, 2,6-bis (Diethanolamino)-4,8-di[(4'-methoxybenzyl)amino]pyrimidopyrimidine], in the assay with L1210 cells (1 μM compound, no AGP, 1 µM), the “% Inhibition of 3H-thymidine uptake, No AGP” value worked out at 56 ± 10%. Further, in the assay on L1210 cells (3 h), the “% Inhibition of 3H-thymidine uptake, +40 mg/ml HSA” value was determined as 89 ± 10%. The inhibition at 1 µM came to 18% in the assay on L1210 cells (setting [5]), 46 ± 8% in the assay with L1210 cells (setting [6]) and 65 ± 11% in the assay on L1210 cells (setting [7]). The inhibition at 10 µM in the assay with L1210 cells (setting [5]) stood at 7%; in the assay with L1210 cells (setting [6]), 89 ± 14%; with L1210 cells (setting [7]), 96 ± 8%. Moreover, the IC50 with L1210 cells (Mus musculus, L1210, no AGP) was 253 ± 75 nM. Also, the “Effect of AGP on the inhibition of thymidine uptake” value in the assay with L1210 cells (in words) was “no significant reduction”. Also, the “Potency as inhibitor relative to dipyridamole” value in the assay with L1210 cells (presence and absence of AGP, or of 40 mg/ml human serum albumin) is on record as “more potent inhibitors than dipyridamole”. Further, the “Prevention of hypoxanthine rescue from LY309887 growth inhibition” value in the assay with A549 [3] and in the assay with MCF7 [4] was “prevented hypoxanthine rescue” each time.

The term IC50 denotes the concentration needed to halve the response being measured. A low value points to higher potency.
